Decomposition of tryptophan data for one compound are collected here from patent publication US20230240332A1, “METHOD FOR PREPARING AMINO ACID GRANULE FROM FERMENTATION BROTH” (CJ CHEILJEDANG CORPORATION, priority 2020, published 2023).

Structures are written as SMILES.

This data set in a line: Stability of tryptophan in fermentation broth with calcium added at molar ratio 0.4. Format: physicochemical. The following applies: calcium added at molar ratio of 0.4; increase in pH. The protocol:
, respectively, in the same manner as in Examples 1-1 to 1-3 except that a tryptophan-containing fermentation broth having the composition disclosed in Table 2 was used, and the pH was 8.8 and 9.0, respectively. The sample of Comparative Example 2 was prepared by concentrating the tryptophan-containing fermentation broth without adding calcium hydroxide to the tryptophan-containing fermentation broth. […] The fermentation broth to which the slurry was added was concentrated to a degree of concentration of 30% (w/w) in Example 1-4 and a degree of concentration of 35% (w/w) in Example 1-5. It was confirmed that the fermentation broth gelled and lost fluidity when concentrated to a higher degree of concentration. At this time, in the case of the fermentation broth to which a slurry was not added, only a degree of concentration of about 25.5% (w/w) was achieved.

Take `N[C@@H](Cc1c[nH]c2ccccc12)C(=O)O` [tryptophan]: the decomposition of tryptophan entry was “decomposed into tryptamine, indole-acetate, and anthranilic acid”.
